Experimental data as given in US12146183B2, “Compound and a method for identifying a protein using said compound” (CITY UNIVERSITY OF HONG KONG, priority 2020, dated 2024).
Where a SMILES comes first, the peptide text is derived from it. The star is where a group is joined. ξ: configuration not given here. Lipoyl(6ξ) = O=C(CCCCC1CCSS1)*

T1: Sirt2 (Homo sapiens, UniProt Q8IXJ6)
T1 construct: made in house
T1 sequence (Q8IXJ6 1-389): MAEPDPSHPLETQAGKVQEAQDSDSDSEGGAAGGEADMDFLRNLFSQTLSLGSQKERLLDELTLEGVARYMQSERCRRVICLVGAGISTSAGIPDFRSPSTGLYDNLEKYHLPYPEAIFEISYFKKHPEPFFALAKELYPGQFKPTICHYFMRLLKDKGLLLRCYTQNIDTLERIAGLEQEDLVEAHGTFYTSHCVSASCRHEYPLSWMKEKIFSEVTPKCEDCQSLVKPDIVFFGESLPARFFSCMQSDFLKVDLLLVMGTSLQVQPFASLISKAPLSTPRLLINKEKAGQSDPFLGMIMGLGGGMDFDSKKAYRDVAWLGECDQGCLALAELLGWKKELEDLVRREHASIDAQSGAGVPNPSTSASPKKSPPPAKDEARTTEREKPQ


Legend:
Sirt2 [1] = biological target: T1, Sirt2; assay: HPLC delipoylation assay of lipoylated peptides with Sirt2; type: biochemical; details: Sirt2 + NAD+, 37° C., monitored at 280 nm after 40 min
Method: A total of 11 lipoylated peptides (KAlip-1 to KAlip-11) were synthesised. The peptide sequences were selected from proteins that have been reported as being lipoylated (PDH, KDH, BCKDH, and GCV) and non-lipoylated proteins (e.g., histone). The peptides were synthesized with a standard Fmoc solid phase synthesis approach and characterized by LC-MS. The delipoylation activity was then determined by an HPLC assay. Compared with non-putative peptides, putative lipoylated peptides appeared to be more efficiently hydrolyzed by Sirt2. For example, the delipoylated product of KAlip-1 (derived from histone) after 40 min was determined to be 59%, which is less than that of putative lipoylated substrates such as KAlip-5 and KAlip-6 (derived from PDH).
The lipoylated peptides KAlip-1 to -11 were incubated with sirtuin and cofactor NAD+ at 37° C. in 20 mM HEPES buffer (pH 8.0) containing 150 mM NaCl, 1 mM MgCl2, and 2.7 mM KCl. The reaction volume was set to 50 μL. At each specific reaction time point, the reaction mixtures were quenched by adding 250 μL of methanol. The reactions were vortexed and centrifuged. Supernatant was collected and then analysed by reverse phase HPLC. The new peak generated was collected for ESI-MS or MALDI-TOF-MS analysis directly.

Sirt2 [2] = biological target: T1, Sirt2; assay: In-gel fluorescence photo-crosslinking labelling of recombinant Sirt2; type: binding; details: competition with probe KPlip
Method: The labelling efficiency of KPlip with recombinant Sirt2 was investigated. The Sirt2 enzyme was first incubated with either KPlip or a negative control probe, KPlip-C(lacking lipoylation), followed by 15 min of UV irradiation. Following click chemistry with rhodamine azide (Rh—N3), the reaction mixtures were resolved by SDS-PAGE and analysed by in-gel fluorescence scanning.
A further selectivity study was performed. […] To examine whether lipoic acid of KPlip forms a disulfide bond with cysteine residues in Sirt2, excessive reducing reagent TCEP was added to the solution containing Sirt2 and KPlip prior to UV irradiation.
20 μM azide reagent was added to the protein samples labelled by KPlip and KPlip-C. Tris(2-carboxyethyl)phosphine (0.4 mM), tris(3-hydroxypropyltriazolylmethyl)amine (40 μM), and CuSO 4 (0.4 mM) were then added. The reaction was kept at room temperature for 2 h.
After click chemistry reaction with rhodamine-azide, chilled acetone was added to the reaction mixtures. The reaction was then placed in a −20° C. freezer for 1 h to precipitate the proteins. The pellets were washed with cold methanol and air-dried. Finally, they were redissolved in 1×SDS loading buffer by heating at 95° C. for 10 min and then resolved by SDS-PAGE. The labelled proteins were visualized using a FLA-9000 Fujifilm scanner (Ex=532 nm).

[3] = substrate: CC(C)[C@H](N)C(=O)N[C@@H](CCC(N)=O)C(=O)N[C@@H](CO)C(=O)N[C@@H](CC(=O)O)C(=O)N[C@@H](CCCCNC(=O)CCCCC1CCSS1)C(=O)N[C@@H](C)C(=O)N[C@@H](CO)C(=O)N[C@H](C(=O)N[C@H](C(=O)N[C@@H](Cc1c[nH]c2ccccc12)C(=O)N[C@@H](Cc1c[nH]c2ccccc12)C(=O)O)[C@@H](C)O)C(C)C; assay: Steady-state kinetic study of lipoylated peptides with Sirt2 (HPLC); type: biochemical; details: other: Sirt2, 400 μM NAD+, HEPES pH 8.0, 37° C.
Method: (§1) The delipoylation activity of HDAC8 was further examined using KAlip-5 and KAlip-1. […] A more detailed assessment of the enzymatic delipoylation reaction was performed. Time-dependent experiments and steady-state kinetics studies were conducted of KAlip-1, 5, 8, and 10 with Sirt2 (Table 1).
(§2) To determine the values of kcat, and Km, purified Sirt2 with 400 μM NAD+ was incubated with different concentrations of lipoylated peptide (0-120 μM) in 20 mM HEPES buffer (pH 8.0) containing 150 mM NaCl, 1 mM MgCl2, and 2.7 mM KCl at 37° C. for 10 min (KAlip-1 and KAlip-10) or 5 min (KAlip-5 and KAlip-8). The reactions were quenched by adding 250 μL of methanol and then applied for HPLC analysis with a linear gradient of 5% to 85% B (acetonitrile) for 30 min. The generated delipoylated product was quantified based on the peak area monitored at 280 nm. The kcat, and Km, values were calculated by curve-fitting Vinitiai/[E] versus [S]. The experiments were conducted in duplicate.

[4] = substrate: CC[C@H](C)[C@H](NC(=O)[C@@H](NC(=O)[C@H](C)NC(=O)[C@H](CCCCNC(=O)CCCCC1CCSS1)NC(=O)[C@H](CC(=O)O)NC(=O)[C@@H](NC(=O)[C@H](CCC(=O)O)NC(=O)[C@@H](NC(=O)[C@@H](N)CCC(=O)O)[C@@H](C)CC)[C@@H](C)O)[C@@H](C)O)C(=O)NCC(=O)N[C@@H](Cc1c[nH]c2ccccc12)C(=O)N[C@@H](Cc1c[nH]c2ccccc12)C(=O)O; assay: as above; type: biochemical; details: other: Sirt2, 400 μM NAD+, HEPES pH 8.0, 37° C.
Method: as §1, §2

[5] = substrate: CSCC[C@H](NC(=O)[C@H](C)NC(=O)[C@H](CCC(=O)O)NC(=O)[C@@H](N)C(C)C)C(=O)N[C@@H](CCCCNC(=O)CCCCC1CCSS1)C(=O)N[C@@H](CC(C)C)C(=O)N[C@@H](CCSC)C(=O)N[C@@H](CC(N)=O)C(=O)N[C@@H](CCC(=O)O)C(=O)N[C@@H](Cc1c[nH]c2ccccc12)C(=O)N[C@@H](Cc1c[nH]c2ccccc12)C(=O)O; assay: as above; type: biochemical; details: other: Sirt2, 400 μM NAD+, HEPES pH 8.0, 37° C.
Method: as §1, §2

[6] = substrate: C[C@H](NC(=O)[C@@H](NC(=O)[C@H](CCC(N)=O)NC(=O)[C@@H](N)CCCCN)[C@@H](C)O)C(=O)N[C@@H](CCCNC(=N)N)C(=O)N[C@@H](CCCCNC(=O)CCCCC1CCSS1)C(=O)N[C@@H](CO)C(=O)N[C@H](C(=O)NCC(=O)NCC(=O)N[C@@H](Cc1c[nH]c2ccccc12)C(=O)N[C@@H](Cc1c[nH]c2ccccc12)C(=O)O)[C@@H](C)O; assay: as above; type: biochemical; details: other: Sirt2, 400 μM NAD+, HEPES pH 8.0, 37° C.
Method: as §1, §2

| Delipoylation product (HPLC yield of delipoylated product) (Sirt2 [1]) [%] | Molecule | further results |
| --- | --- | --- |
| 59 | C[C@H](NC(=O)[C@@H](NC(=O)[C@H](CCC(N)=O)NC(=O)[C@@H](N)CCCCN)[C@@H](C)O)C(=O)N[C@@H](CCCNC(=N)N)C(=O)N[C@@H](CCCCNC(=O)CCCCC1CCSS1)C(=O)N[C@@H](CO)C(=O)N[C@H](C(=O)NCC(=O)NCC(=O)N[C@@H](Cc1c[nH]c2ccccc12)C(=O)N[C@@H](Cc1c[nH]c2ccccc12)C(=O)O)[C@@H](C)O (stereo partly drawn) [KAlip-1, KQTARK(lip)STGGWW] (H-KQTARK(Lipoyl(6ξ))STGGWW-OH) | – |
| 100 | CC[C@H](C)[C@H](NC(=O)[C@@H](NC(=O)[C@H](C)NC(=O)[C@H](CCCCNC(=O)CCCCC1CCSS1)NC(=O)[C@H](CC(=O)O)NC(=O)[C@@H](NC(=O)[C@H](CCC(=O)O)NC(=O)[C@@H](NC(=O)[C@@H](N)CCC(=O)O)[C@@H](C)CC)[C@@H](C)O)[C@@H](C)O)C(=O)NCC(=O)N[C@@H](Cc1c[nH]c2ccccc12)C(=O)N[C@@H](Cc1c[nH]c2ccccc12)C(=O)O (stereo partly drawn) [KAlip-5, EIETDK(lip)ATIGWW] (H-EIETDK(Lipoyl(6ξ))ATIGWW-OH) | – |
| 100 | CC(C)[C@H](N)C(=O)N[C@@H](CCC(N)=O)C(=O)N[C@@H](CO)C(=O)N[C@@H](CC(=O)O)C(=O)N[C@@H](CCCCNC(=O)CCCCC1CCSS1)C(=O)N[C@@H](C)C(=O)N[C@@H](CO)C(=O)N[C@H](C(=O)N[C@H](C(=O)N[C@@H](Cc1c[nH]c2ccccc12)C(=O)N[C@@H](Cc1c[nH]c2ccccc12)C(=O)O)[C@@H](C)O)C(C)C (stereo partly drawn) [KAlip-8, VQSD K(lip)ASVTWW] (H-VQSDK(Lipoyl(6ξ))ASVTWW-OH) | – |
| 94 | CSCC[C@H](NC(=O)[C@H](C)NC(=O)[C@H](CCC(=O)O)NC(=O)[C@@H](N)C(C)C)C(=O)N[C@@H](CCCCNC(=O)CCCCC1CCSS1)C(=O)N[C@@H](CC(C)C)C(=O)N[C@@H](CCSC)C(=O)N[C@@H](CC(N)=O)C(=O)N[C@@H](CCC(=O)O)C(=O)N[C@@H](Cc1c[nH]c2ccccc12)C(=O)N[C@@H](Cc1c[nH]c2ccccc12)C(=O)O (stereo partly drawn) [KAlip-11, VEAMK(lip)LMNE WW] (H-VEAMK(Lipoyl(6ξ))LMNEWW-OH) | – |
| 100 | EALPKK(lip) TGGPWW [KAlip-9] | – |
| 65 | EIETDK(lip) TSVQWW [KAlip-7] | – |
| 100 | EIETDK(lip)AVVTWW [KAlip-6] | – |
| 98 | SDPIIK(lip)GSGTWW [KAlip-3] | – |
| 100 | SGASEK(lip)DIVHSGWW [KAlip-4] | – |
| 97 | VKSK(lip)ATNL WW [KAlip-2] | – |
| – | VQSDKlipASVT [lipoylated peptide competitor] | Inhibition of KPlip labelling of Sirt2 (Sirt2 [2]): can be inhibited |
| – | Sirt2 (Homo sapiens) (protein, made in house) MAEPDPSHPLETQAGKVQEAQDSDSDSEGGAAGGEADMDFLRNLFSQTLSLGSQKERLLDELTLEGVARYMQSERCRRVICLVGAGISTSAGIPDFRSPSTGLYDNLEKYHLPYPEAIFEISYFKKHPEPFFALAKELYPGQFKPTICHYFMRLLKDKGLLLRCYTQNIDTLERIAGLEQEDLVEAHGTFYTSHCVSASCRHEYPLSWMKEKIFSEVTPKCEDCQSLVKPDIVFFGESLPARFFSCMQSDFLKVDLLLVMGTSLQVQPFASLISKAPLSTPRLLINKEKAGQSDPFLGMIMGLGGGMDFDSKKAYRDVAWLGECDQGCLALAELLGWKKELEDLVRREHASIDAQSGAGVPNPSTSASPKKSPPPAKDEARTTEREKPQ | Km [3]: 26.2 ± 3.3 µM; Km [4]: 18.9 µM; Km [5]: 13.5 µM; Km [6]: 9.7 ± 0.2 µM |
